Measured values as given in patent US20070197509A1, “Compositions and methods for modulating gated ion channels” (PainCeptor Pharma Corporation, priority 2005, published 2007).
Entries after “also recorded” stand apart in the source; their conditions may differ.

Key:
hASIC1a [1] = molecular target: T1, hASIC1a (Homo sapiens, UniProt P78348); assay: Two-electrode voltage clamp in Xenopus laevis oocytes expressing hASIC1a (OpusExpress); format: cell-based; parameters: expressed in transfected cells; host or cells: Xenopus laevis oocytes, nuclear microinjection of cDNA (e.g. in pCDNA3); details: for effect on hASIC1a current evoked by pH 6.5 in oocytes (FIGS. 4A-4D): OpusExpress, two-electrode voltage clamp, dose-response
T1 sequence (P78348 1-528): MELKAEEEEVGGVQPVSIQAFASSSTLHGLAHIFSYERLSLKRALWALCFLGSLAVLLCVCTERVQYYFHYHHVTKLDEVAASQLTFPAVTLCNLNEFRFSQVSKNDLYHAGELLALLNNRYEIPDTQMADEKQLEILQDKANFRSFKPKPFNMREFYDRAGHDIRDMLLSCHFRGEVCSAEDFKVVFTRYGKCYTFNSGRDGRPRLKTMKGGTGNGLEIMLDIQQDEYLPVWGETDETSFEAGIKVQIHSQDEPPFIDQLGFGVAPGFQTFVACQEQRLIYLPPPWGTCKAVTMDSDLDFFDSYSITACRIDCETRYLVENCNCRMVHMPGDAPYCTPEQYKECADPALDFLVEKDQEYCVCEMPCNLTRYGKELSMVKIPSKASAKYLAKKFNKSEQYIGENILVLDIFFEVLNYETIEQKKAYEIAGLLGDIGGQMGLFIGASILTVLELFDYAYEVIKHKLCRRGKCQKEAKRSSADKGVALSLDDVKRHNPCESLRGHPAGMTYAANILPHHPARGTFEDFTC
Outline: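 Two-electrode voltage clamp on Xenopus oocytes expressing homomeric hASIC1a, recorded on an automated multichannel system. Oocytes superfused with Ringer (HEPES, pH 7.4); currents evoked by MES-buffered acidic Ringer, with compound present in both control and acidic solutions, at room temperature.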

hASIC1a [2] = molecular target: T1, hASIC1a; assay: Whole-cell patch clamp of acid-induced currents in cells transfected with hASIC1a; format: cell-based; parameters: expressed in transfected cells; details: for effect on acid-induced hASIC1a inward current (FIGS. 2A, 2B, 3C): whole-cell patch clamp, dose-inhibition curves
Experimental: Another example of an in vitro assessment method consists of using mammalian heterologous expression systems, which are known to those skilled in the art, and include a variety of mammalian cell lines such as COS, HEK, e.g., HEK293 and/or CHO, cells. Cell lines are transfected with gated ion channel(s) and used to perform electrophysiology as follows:
All experiments are performed at room temperature (20-25° C.) in voltage clamp using conventional whole cell patch clamp methods (Neher, E., et al. (1978) Pfluegers Arch 375:219-228).
The amplifier used is the EPC-9 (HEKA-electronics, Lambrect, Germany) run by a Macintosh G3 computer via an ITC-16 interface. Experimental conditions are set with the Pulse-software accompanying the amplifier. Data is low pass filtered and sampled directly to hard-disk at a rate of 3 times the cut-off frequency.
Pipettes are pulled from borosilicate glass using a horizontal electrode puller (Zeitz-lnstrumente, Augsburg, Germany). The pipette resistances are 2-3 MOhms in the salt solutions used in these experiments. The pipette electrode is a chloridized silver wire, and the reference is a silver chloride pellet electrode (In Vivo Metric, Healdsburg, USA) fixed to the experimental chamber. The electrodes are zeroed with the open pipette in the bath just prior to sealing.
Coverslips with the cells are transferred to a 15 μl experimental chamber mounted on the stage of an inverted microscope (IMT-2, Olympus) supplied with Nomarski optics. Cells are continuously superfused with extracellular saline at a rate of 2.5 ml/min. After giga-seal formation, the whole cell configuration is attained by suction. The cells are held at a holding voltage of −60 mV and at the start of each experiment the current is continuously measured for 45 s to ensure a stable baseline. Solutions of low pH (<7) are delivered to the chamber through a custom-made gravity-driven flowpipe, the tip of which is placed approximately 50 μm from the cell. Application is triggered when the tubing connected to the flowpipe is compressed by a valve controlled by the Pulse-software. Initially, low pH (in general, pH 6.5) is applied for 5 s every 60 s. The sample interval during application is 550 μs. After stable responses are obtained, the extracellular saline as well as the low-pH solution are switched to solutions containing the compound to be tested. The compound is present until responses of repeatable amplitude are achieved. Current amplitudes are measured at the peak of the responses, and effect of the compounds is calculated as the amplitude at compound equilibrium divided by the amplitude of the current evoked by the pulse just before the compound was included.
The following salt solutions are used: extracellular solution (mM): NaCl (140), KCl (4), CaCl2 (2), MgCl2 (4), HEPES (10, pH 7.4); intracellular solution (mM): KCl (120), KOH (31), MgCl2 (1.785), EGTA (10), HEPES (10, pH 7.2). In general, compounds for testing are dissolved in 50% DMSO at 500 fold the highest concentration used.
CHO cells were transfected with hASIC1a and used to perform full dose-inhibition curves with Compound B, and Compound R. Results are expressed as a fraction of the control peak current obtained in the absence of the test substance.

[3] = Table H, read-out: IC50 (μM) Patch Clamp (h1a)

| effect on hASIC1a current evoked by pH 6.5 in oocytes (FIGS. 4A-4D) (hASIC1a [1]) | IC50 (hASIC1a [2]; [3]) [µM] | IC50 (hASIC1a [1]; OpusExpress (OX), Tables A-F, h1a printed in some cells only, read-out: Biological Data (IC50 uM) h1a (OX)) [µM] | IC50 (hASIC1a [1]; Table H, read-out: IC50 (μM) Opus Express (h1a)) [µM] | IC50 (hASIC1a [2]; patch clamp (PC), Tables A-F, h1a printed in some cells only, read-out: Biological Data (IC50 uM) h1a (PC)) [µM] | reversibility of the effect on hASIC1a current (hASIC1a [2]; washout of the compound after 1 μM) | Structure (SMILES) | effect on acid-induced hASIC1a inward current (FIGS. 2A, 2B, 3C) (hASIC1a [2]) | selectivity hASIC1a versus hASIC3 (hASIC1a [2]; patch clamp, CHO cells, FIG. 3) |
| --- | --- | --- | --- | --- | --- | --- | --- | --- |
| effective modulators | > 10 | – | – | – | – | COc1ccc(C(=O)CN2CCN(c3cc(C)nc4ccccc34)CC2)cc1 [Compound A, 1-(4-methoxy-phenyl)-2-[4-(2-methyl-quinolin-4-yl)-piperazin-1-yl]-ethanone] | – | – |
| dose-dependent reduction | – | – | – | – | – | Fc1cccc2c(OC3CCN(Cc4ccccc4)CC3)cc(C(F)(F)F)nc12 [Compound B, 4-(1-benzyl-piperidin-4-yloxy)-8-fluoro-2-trifluoromethyl-quinoline] | dose-dependently reduce hASIC1a activity; also recorded: dose-dependent reduction | – |

| Structure (SMILES) | effect on hASIC1a current evoked by pH 6.5 in oocytes (FIGS. 4A-4D) (hASIC1a [1]) | IC50 (hASIC1a [2]; [3]) [µM] | IC50 (hASIC1a [1]; OpusExpress (OX), Tables A-F, h1a printed in some cells only, read-out: Biological Data (IC50 uM) h1a (OX)) [µM] | IC50 (hASIC1a [1]; Table H, read-out: IC50 (μM) Opus Express (h1a)) [µM] | IC50 (hASIC1a [2]; patch clamp (PC), Tables A-F, h1a printed in some cells only, read-out: Biological Data (IC50 uM) h1a (PC)) [µM] | reversibility of the effect on hASIC1a current (hASIC1a [2]; washout of the compound after 1 μM) | effect on acid-induced hASIC1a inward current (FIGS. 2A, 2B, 3C) (hASIC1a [2]) | selectivity hASIC1a versus hASIC3 (hASIC1a [2]; patch clamp, CHO cells, FIG. 3) |
| --- | --- | --- | --- | --- | --- | --- | --- | --- |
| Cc1cc(OC2CCN(Cc3ccccc3)CC2)c2ccccc2n1 [Compound R, 4-(1-benzyl-piperidin-4-yloxy)-2-methyl-quinoline] | effective modulators; also recorded: dose-dependent reduction | 3.8 | 2 to 10 | 1.5 | 2 to 10 | fully reversed upon washout | dose-dependently reduce hASIC1a activity; also recorded: reduced the hASIC1a pH-evoked response in a dose-dependent manner; also recorded: dose-dependent reduction | selective against specific ASIC subunits; also recorded: selective for hASIC1a over hASIC3 |
